Assay results reported in the supplement of paper PMC11061612.

Columns and labels:
Venetoclax = compound: CC1(C)CCC(CN2CCN(c3ccc(C(=O)NS(=O)(=O)c4ccc(NCC5CCOCC5)c([N+](=O)[O-])c4)c(Oc4cnc5[nH]ccc5c4)c3)CC2)=C(c2ccc(Cl)cc2)C1 [Venetoclax]; details: max 1 µM
Procedure, shortened: (§1)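 Cancer cell lines in 1536-well plates (7.5 μl DMEM/F12 or RPMI, 10% FBS) were held 24 hours at 37°C and 5% CO2 and then dosed for 72 hours at a final DMSO of typically 0.2%. Viability was taken from CellTiter-Glo 2.0 luminescence, scaled between blank-well and DMSO-well means. Curves were fitted as two-parameter logistic models with a non-linear mixed effects model, from which the single-agent IC50 was taken.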

Selumetinib = compound: Cn1cnc2c(F)c(Nc3ccc(Br)cc3Cl)c(C(=O)NOCCO)cc21 [Selumetinib]
Procedure, shortened: as §1

Taselisib = compound: Cc1nc(-c2cn3c(n2)-c2ccc(-c4cnn(C(C)(C)C(N)=O)c4)cc2OCC3)n(C(C)C)n1 [Taselisib]; details: max 10 µM
Procedure, shortened: as §1

Trametinib = compound: CC(=O)Nc1cccc(-n2c(=O)n(C3CC3)c(=O)c3c(Nc4ccc(I)cc4F)n(C)c(=O)c(C)c32)c1 [Trametinib]; details: max 1 µM
Procedure, shortened: as §1

Savolitinib = compound: C[C@@H](c1ccc2nccn2c1)n1nnc2ncc(-c3cnn(C)c3)nc21 [Savolitinib]; details: max 1 µM
Procedure, shortened: as §1

Doxorubicin = compound: COc1cccc2c1C(=O)c1c(O)c3c(c(O)c1C2=O)C[C@@](O)(C(=O)CO)C[C@@H]3O[C@H]1C[C@H](N)[C@H](O)[C@H](C)O1 [Doxorubicin]; details: max 1 µM
Procedure, shortened: as §1

Alisertib = compound: COc1cc(Nc2ncc3c(n2)-c2ccc(Cl)cc2C(c2c(F)cccc2OC)=NC3)ccc1C(=O)O [Alisertib]; details: max 10 µM
Procedure, shortened: as §1

AZD1390 = compound: CC(C)n1c(=O)n(C)c2cnc3cc(F)c(-c4ccc(OCCCN5CCCCC5)nc4)cc3c21 [AZD1390]; details: max 0.3 µM
Procedure, shortened: as §1

Gefitinib = compound: COc1cc2ncnc(Nc3ccc(F)c(Cl)c3)c2cc1OCCCN1CCOCC1 [Gefitinib]; details: max 10 µM
Procedure, shortened: as §1

Prexasertib = compound: COc1cccc(OCCCN)c1-c1cc(Nc2cnc(C#N)cn2)n[nH]1 [Prexasertib]; details: max 1 µM
Procedure, shortened: as §1

Lapatinib = compound: CS(=O)(=O)CCNCc1ccc(-c2ccc3ncnc(Nc4ccc(OCc5cccc(F)c5)c(Cl)c4)c3c2)o1 [Lapatinib]; details: max 10 µM
Procedure, shortened: as §1

SN-38 = compound: CCc1c2c(nc3ccc(O)cc13)-c1cc3c(c(=O)n1C2)COC(=O)[C@]3(O)CC [SN-38]; details: max 0.3 µM
Procedure, shortened: as §1

Crizotinib = compound: C[C@@H](Oc1cc(-c2cnn(C3CCNCC3)c2)cnc1N)c1c(Cl)ccc(F)c1Cl [Crizotinib]; details: max 10 µM
Procedure, shortened: as §1

Capivasertib = compound: C1CN(CCC1(C(=O)N[C@@H](CCO)C2=CC=C(C=C2)Cl)N)C3=NC=NC4=C3C=CN4 [Capivasertib]
Procedure, shortened: as §1

Palbociclib = compound: CC(=O)c1c(C)c2cnc(Nc3ccc(N4CCNCC4)cn3)nc2n(C2CCCC2)c1=O [Palbociclib]; details: max 10 µM
Procedure, shortened: as §1

AZD8186 = compound: C[C@@H](Nc1cc(F)cc(F)c1)c1cc(C(=O)N(C)C)cc2c(=O)cc(N3CCOCC3)oc12 [AZD8186]; details: max 3 µM
Procedure, shortened: as §1

AZD0156 = compound: CN(C)CCCOc1ccc(-c2ccc3ncc4c(c3c2)n(C2CCOCC2)c(=O)n4C)cn1 [AZD0156]; details: max 3 µM
Procedure, shortened: as §1

AZD5153 = compound: COc1nnc2ccc(N3CCC(c4ccc(OCCN5CCN(C)C(=O)[C@H]5C)cc4)CC3)nn12 [AZD5153]; details: max 1 µM
Procedure, shortened: as §1

Olaparib = compound: O=C(c1cc(Cc2n[nH]c(=O)c3ccccc23)ccc1F)N1CCN(C(=O)C2CC2)CC1 [Olaparib]
Procedure, shortened: as §1

SG3199 = compound: CC1=CN2[C@@H](C1)C=NC3=CC(=C(C=C3C2=O)OC)OCCCCCOC4=C(C=C5C(=C4)N=C[C@@H]6CC(=CN6C5=O)C)OC [SG3199]; details: max 0.001 µM
Procedure, shortened: as §1

AZD6738 = compound: C[C@@H]1COCCN1C2=NC(=NC(=C2)C3(CC3)[S@](=N)(=O)C)C4=C5C=CNC5=NC=C4 [AZD6738]; details: max 10 µM
Procedure, shortened: as §1

AZD5991 = compound: Cc1c2c(nn1C)CSCc1cc(n(C)n1)CSc1cc(c3ccccc3c1)OCCCc1c(C(=O)O)n(C)c3c-2c(Cl)ccc13 [AZD5991]; details: max 1 µM
Procedure, shortened: as §1

Dasatinib = compound: CC1=C(C(=CC=C1)Cl)NC(=O)C2=CN=C(S2)NC3=CC(=NC(=N3)C)N4CCN(CC4)CCO [Dasatinib]; details: max 2 µM
Procedure, shortened: as §1

AZD2811 = compound: CCN(CCO)CCCOc1ccc2c(Nc3cc(CC(=O)Nc4cccc(F)c4)[nH]n3)ncnc2c1 [AZD2811]; details: max 1 µM
Procedure, shortened: as §1

AZD4320 = compound: CN(CC[C@H](CSC1=CC=CC=C1)NC2=C(C=C(C=C2)S(=O)(=O)NC(=O)C3=CC=C(C=C3)N4CCC(CC4)[C@H](C5=CC=CC=C5C6=CC=C(C=C6)Cl)O)S(=O)(=O)C(F)(F)F)CCO [AZD4320]; details: max 1 µM
Procedure, shortened: as §1

AZD7648 = compound: Cc1cc2ncnn2cc1Nc1ncc2c(n1)n(C1CCOCC1)c(=O)n2C [AZD7648]; details: max 10 µM
Procedure, shortened: as §1

AZD1775 = compound: C=CCn1c(=O)c2cnc(Nc3ccc(N4CCN(C)CC4)cc3)nc2n1-c1cccc(C(C)(C)O)n1 [AZD1775]; details: max 3 µM
Procedure, shortened: as §1

Cell Line | IC50, cell viability 72 h (Venetoclax) [nM] | IC50, cell viability 72 h (Selumetinib; max 10 µM) [nM] | IC50, cell viability 72 h (Taselisib) [nM] | IC50, cell viability 72 h (Trametinib) [nM] | IC50, cell viability 72 h (Savolitinib) [nM] | IC50, cell viability 72 h (Doxorubicin) [nM] | IC50, cell viability 72 h (Alisertib) [nM] | IC50, cell viability 72 h (AZD1390) [nM] | IC50, cell viability 72 h (Gefitinib) [nM] | IC50, cell viability 72 h (Prexasertib) [nM] | IC50, cell viability 72 h (Lapatinib) [nM] | IC50, cell viability 72 h (SN-38) [nM] | IC50, cell viability 72 h (Crizotinib) [nM] | IC50, cell viability 72 h (Capivasertib; max 10 µM) [nM] | IC50, cell viability 72 h (Palbociclib) [nM] | IC50, cell viability 72 h (AZD8186) [nM] | IC50, cell viability 72 h (AZD0156) [nM] | IC50, cell viability 72 h (AZD5153) [nM] | IC50, cell viability 72 h (Olaparib; max 10 µM) [nM] | IC50, cell viability 72 h (SG3199) [nM] | IC50, cell viability 72 h (AZD6738) [nM] | IC50, cell viability 72 h (AZD5991) [nM] | IC50, cell viability 72 h (Dasatinib) [nM] | IC50, cell viability 72 h (AZD2811) [nM] | IC50, cell viability 72 h (AZD4320) [nM] | IC50, cell viability 72 h (AZD7648) [nM] | IC50, cell viability 72 h (AZD1775) [nM] | IC50, cell viability 72 h (Selumetinib; max 3 µM) [nM] | IC50, cell viability 72 h (Capivasertib; max 3 µM) [nM] | IC50, cell viability 72 h (Olaparib; max 3 µM) [nM]
KM12 (Colorectal Carcinoma) | > 1000 | 1300 | 7180 | 35.6 | > 1000 | 357 | 1110 | > 300 | > 10000 | 66.6 | > 10000 | 90.8 | 271 | 2280 | 1170 | > 3000 | > 3000 | 287 | > 10000 | > 1 | 5540 | > 1000 | > 2000 | > 1000 | > 1000 | > 10000 | 454 |  |  | 
KYSE-180 (Esophageal Squamous Cell Carcinoma) | > 1000 | > 10000 | 4520 | > 1000 | > 1000 | > 1000 | > 10000 | > 300 | > 10000 | 22.3 | > 10000 | > 300 | > 10000 | > 10000 | > 10000 | > 3000 | > 3000 | > 1000 | > 10000 | > 1 | 5360 | 642 | 1730 | > 1000 | > 1000 | > 10000 | 440 |  |  | 
LN-18 (Glioblastoma) | > 1000 | > 10000 | 5680 | > 1000 | > 1000 | > 1000 | 1400 | > 300 | > 10000 | 209 | 9520 | 138 | > 10000 | > 10000 | > 10000 | 2530 | > 3000 | 342 | > 10000 | > 1 | 8830 | > 1000 | > 2000 | > 1000 | > 1000 | > 10000 | > 3000 |  |  | 
MEL-JUSO (Melanoma) | > 1000 | > 10000 | > 10000 | 430 | > 1000 | > 1000 | > 10000 | > 300 | > 10000 | 125 | > 10000 | > 300 | > 10000 | > 10000 | > 10000 | > 3000 | > 3000 | > 1000 | > 10000 | > 1 | > 10000 | > 1000 | > 2000 | > 1000 | > 1000 | > 10000 | > 3000 |  |  | 
MFM-223 (Breast Carcinoma) | > 1000 | > 10000 | 1160 | > 1000 | > 1000 | > 1000 | 633 | > 300 | > 10000 | 59.9 | > 10000 | > 300 | > 10000 | 1620 | > 10000 | > 3000 | > 3000 | > 1000 | > 10000 | > 1 | 5200 | > 1000 | > 2000 | > 1000 | > 1000 | > 10000 | 2300 |  |  | 
MOLT-16 (T-Lymphoblastic Leukemia) | 308 | > 10000 | 1110 | > 1000 | > 1000 | 46.7 | 29.1 | > 300 | > 10000 | 11.2 | 6350 | 2.33 | 1770 | 811 | 420 | > 3000 | > 3000 | 76.2 | 5600 | > 1 | 557 | 51.5 | > 2000 | 12.4 | 16.3 | > 10000 | 168 |  |  | 
NCI-H847 (Small Cell Lung Carcinoma) | > 1000 |  | 2330 | > 1000 |  | 281 | 10.1 |  |  | 15.1 |  | 16 |  |  |  | 1950 | > 3000 |  | 6860 | > 1 | 901 | 665 |  | 58.4 | 15.6 | 5200 | 143 | > 3000 | > 3000 | 
P12-ICHIKAWA (T-Lymphoblastic Leukemia) | > 1000 | > 10000 | > 10000 | > 1000 | > 1000 |  | 38.1 | > 300 | > 10000 | 17.3 | > 10000 | 1.61 | 2230 | 3170 | 1600 | > 3000 | > 3000 | 89.1 |  |  | 1020 | 252 | > 2000 | 15.4 | 37.3 | > 10000 | 262 |  |  | > 3000
